Measurements published in ChEMBL document CHEMBL4831528, “Discovery of Novel Pterostilbene-Based Derivatives as Potent and Orally Active NLRP3 Inflammasome Inhibitors with Inflammatory Activity for Colitis” (J Med Chem, 2021).
Activity calls are given as the source filed them. The rule behind the calls is not given here.

Columns and labels:
[1] = Half life in mouse at 20 mg/kg, po measured up to 24 hrs by LC-MS/MS analysis; assay type: ADME, organism-based; conditions: in vivo
[2] = Toxicity in C57BL/6 mouse assessed as overactivity at 20 to 40 mg/kg, ig administered for 28 days; assay type: organism-based; conditions: in vivo, po, 672 h, dose 20-40 mg/kg, time 28 day
Mus musculus [3] = test: Protection against DSS-induced acute ulcerative colitis in C57BL/6 mouse assessed as reduction in bloody stool at 10 to 20 mg/kg, ig administered for 7 days; assay type: functional, organism-based; conditions: dose 10-20 mg/kg, time 7.0 day
[4] = target: T1, NACHT, LRR and PYD domains-containing protein 3 (Homo sapiens, UniProt Q96P20); test: Binding affinity to His-GFP fused tagged NLRP3 (unknown origin) expressed in HEK293T incubated for 30 mins by microscale thermophoresis assay; assay type: cell-based
T1 sequence (Q96P20 whole entry, the tested form may be a part): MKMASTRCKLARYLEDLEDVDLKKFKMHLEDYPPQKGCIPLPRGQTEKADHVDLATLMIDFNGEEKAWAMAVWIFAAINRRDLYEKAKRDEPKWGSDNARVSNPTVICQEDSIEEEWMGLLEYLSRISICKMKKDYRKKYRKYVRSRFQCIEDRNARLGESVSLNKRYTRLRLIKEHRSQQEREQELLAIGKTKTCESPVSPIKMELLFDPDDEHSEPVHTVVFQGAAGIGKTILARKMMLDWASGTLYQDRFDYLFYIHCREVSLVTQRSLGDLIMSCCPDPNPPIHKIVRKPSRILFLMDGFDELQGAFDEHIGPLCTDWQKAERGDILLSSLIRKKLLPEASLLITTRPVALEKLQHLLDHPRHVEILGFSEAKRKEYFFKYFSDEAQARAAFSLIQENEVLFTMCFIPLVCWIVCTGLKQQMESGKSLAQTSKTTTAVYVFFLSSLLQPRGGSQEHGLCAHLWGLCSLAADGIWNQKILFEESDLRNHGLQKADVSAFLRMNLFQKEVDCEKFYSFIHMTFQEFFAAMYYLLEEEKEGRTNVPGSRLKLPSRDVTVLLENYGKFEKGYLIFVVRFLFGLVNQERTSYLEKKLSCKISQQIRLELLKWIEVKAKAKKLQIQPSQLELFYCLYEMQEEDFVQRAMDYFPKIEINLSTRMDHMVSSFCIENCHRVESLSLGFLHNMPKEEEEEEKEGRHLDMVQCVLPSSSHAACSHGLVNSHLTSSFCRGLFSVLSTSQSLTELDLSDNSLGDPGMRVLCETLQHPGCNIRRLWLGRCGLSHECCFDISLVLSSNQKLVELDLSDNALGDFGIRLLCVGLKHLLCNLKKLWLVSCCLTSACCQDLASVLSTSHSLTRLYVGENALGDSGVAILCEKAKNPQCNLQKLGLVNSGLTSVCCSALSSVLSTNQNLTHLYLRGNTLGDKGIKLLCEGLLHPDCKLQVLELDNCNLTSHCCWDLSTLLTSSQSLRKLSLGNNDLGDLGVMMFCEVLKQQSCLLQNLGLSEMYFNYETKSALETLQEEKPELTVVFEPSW

Mus musculus [5] = test: In vivo inhibition of NLRP3 inflammasome activation in C57BL/6 mouse assessed as reduction in MPO activity at 10 to 20 mg/kg, ig administered for 7 days by ELISA; assay type: functional, organism-based; conditions: dose 10-20 mg/kg, time 7.0 day
[6] = AUC (0 to infinity) in mouse at 2 mg/kg, iv measured after 0.08 to 24 hrs by LC-MS/MS analysis; assay type: ADME, organism-based; design: route intravenous, time upper 24 hrs, dose 2 mg/kg, time lower 0.08 hrs; conditions: in vivo
[7] = Intrinsic clearance in human liver microsomes preincubated for 5 mins followed by NADPH addition and measured after 5 to 60 mins by LC-MS/MS analysis; assay type: ADME, Microsome; conditions: time 5-60 min, read-out: CLH
[8] = target: NACHT, LRR and PYD domains-containing protein 3 (Mus musculus) (UniProt Q8R4B8); test: Inhibition of NLRP3 inflammasome activation in LPS-stimulated mouse bone marrow-derived macrophages assessed as reduction in cleaved IL-1beta in supernatant at 2 uM preincubated for 30 mins followed by MSU addition and measured after 0.5 hrs by Western blot analysis; assay type: tissue-based; conditions: Macrophage, time 60.0 min
Chain of NACHT, LRR and PYD domains-containing protein 3 (Mus musculus) (Q8R4B8 whole entry, the tested form may be a part): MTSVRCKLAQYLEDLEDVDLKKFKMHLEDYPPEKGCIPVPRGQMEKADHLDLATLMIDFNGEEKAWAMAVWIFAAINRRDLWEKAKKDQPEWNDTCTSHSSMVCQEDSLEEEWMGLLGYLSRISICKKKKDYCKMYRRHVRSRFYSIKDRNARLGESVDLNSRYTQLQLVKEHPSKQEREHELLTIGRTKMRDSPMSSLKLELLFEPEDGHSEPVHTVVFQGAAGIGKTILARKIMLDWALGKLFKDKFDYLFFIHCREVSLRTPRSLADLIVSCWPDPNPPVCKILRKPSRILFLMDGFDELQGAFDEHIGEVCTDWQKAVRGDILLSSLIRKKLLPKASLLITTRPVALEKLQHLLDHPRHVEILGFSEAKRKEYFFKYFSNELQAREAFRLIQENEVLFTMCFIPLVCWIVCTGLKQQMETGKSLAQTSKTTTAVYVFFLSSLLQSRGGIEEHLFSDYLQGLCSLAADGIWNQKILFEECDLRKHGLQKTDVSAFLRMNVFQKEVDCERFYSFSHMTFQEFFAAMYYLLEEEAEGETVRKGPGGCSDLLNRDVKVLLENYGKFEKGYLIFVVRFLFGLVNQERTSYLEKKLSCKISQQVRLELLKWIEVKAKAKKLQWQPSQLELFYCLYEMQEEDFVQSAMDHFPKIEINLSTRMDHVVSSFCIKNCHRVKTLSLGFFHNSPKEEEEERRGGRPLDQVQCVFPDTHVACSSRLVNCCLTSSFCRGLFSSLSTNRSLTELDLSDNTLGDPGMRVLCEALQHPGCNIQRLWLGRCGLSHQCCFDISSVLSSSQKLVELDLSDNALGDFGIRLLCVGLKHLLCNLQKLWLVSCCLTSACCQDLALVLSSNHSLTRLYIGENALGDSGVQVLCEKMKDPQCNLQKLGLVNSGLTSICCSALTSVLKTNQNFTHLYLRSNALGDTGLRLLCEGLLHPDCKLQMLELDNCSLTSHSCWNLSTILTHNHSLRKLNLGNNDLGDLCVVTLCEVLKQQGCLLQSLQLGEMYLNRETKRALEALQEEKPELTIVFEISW

Macrophage = test: Inhibition of NFkappaB activation in LPS-stimulated mouse bone marrow-derived macrophages assessed as reduction in TNFalpha secretion at 0.5 to 2 uM preincubated for 30 mins followed by nigericin addition and measured after 30 mins by ELISA; assay type: tissue-based; conditions: dose 0.5-2 µM, time 60.0 min
Mus musculus [9] = test: Downregulation of COX2 expression in colon of C57BL/6 mouse model of DSS-induced ulcerative colitis at 10 to 20 mg/kg, ig administered for 7 days by Western blot analysis; assay type: functional, organism-based; conditions: dose 10-20 mg/kg, time 7.0 day
[10] = target: NACHT, LRR and PYD domains-containing protein 3 (Mus musculus) (UniProt Q8R4B8); test: Inhibition of NLRP3 inflammasome activation in LPS-stimulated mouse bone marrow-derived macrophages assessed as attenuation of ASC polymer at 1 to 4 uM preincubated for 30 mins followed by nigericin addition and measured after 0.5 hrs by Western blot analysis; assay type: tissue-based; conditions: Macrophage, dose 1-4 µM, time 60.0 min
[11] = Toxicity in C57BL/6 mouse assessed as weight loss at 20 to 40 mg/kg, ig administered for 28 days; assay type: organism-based; conditions: in vivo, po, 672 h, dose 20-40 mg/kg, time 28 day
[12] = target: NACHT, LRR and PYD domains-containing protein 3 (Mus musculus) (UniProt Q8R4B8); test: Inhibition of NLRP3 inflammasome activation in LPS-stimulated mouse bone marrow-derived macrophages assessed as reduction in activated caspase1 p20 in supernatant at 2 uM preincubated for 30 mins followed by ATP addition and measured after 0.5 hrs by Western blot analysis; assay type: tissue-based; conditions: Macrophage, time 60.0 min
[13] = Toxicity in C57BL/6 mouse assessed as effect on lung at 20 to 40 mg/kg, ig administered for 28 days; assay type: organism-based; conditions: in vivo, po, 672 h, dose 20-40 mg/kg, time 28 day
BMDM [14] = test: Effect on pro-caspase1(p45) expression in LPS-stimulated mouse bone marrow-derived macrophages at 0.5 to 2 uM preincubated for 30 mins followed by nigericin addition and measured after 30 mins by Western blot analysis; assay type: functional, tissue-based; conditions: dose 0.5-2 µM, time 60.0 min
[15] = target: T1, NACHT, LRR and PYD domains-containing protein 3; test: Inhibition of recombinant human NLRP3 preincubated for 15 mins followed by ATP addition by ADP-Glo kinase assay
L02 = test: Cytotoxicity against human L-02 cells incubated for 24 hrs by MTT assay; assay type: cell-based; conditions: L02, 24 h
[16] = target: NACHT, LRR and PYD domains-containing protein 3 (Mus musculus, UniProt Q8R4B8); test: Inhibition of NLRP3 inflammasome activation in LPS-stimulated mouse bone marrow-derived macrophages assessed as reduction in IL-1beta secretion preincubated for 30 mins followed by nigericin addition and measured after 30 mins by ELISA; assay type: tissue-based, Macrophage
Chain of NACHT, LRR and PYD domains-containing protein 3 (Mus musculus, UniProt Q8R4B8) (Q8R4B8 whole entry, the tested form may be a part): as above

[17] = target: NACHT, LRR and PYD domains-containing protein 3 (Mus musculus) (UniProt Q8R4B8); test: Inhibition of NLRP3 inflammasome activation in LPS-stimulated mouse bone marrow-derived macrophages assessed as reduction in pro IL-1beta secretion in cell lysate at 2 uM preincubated for 30 mins followed by nigericin addition and measured after 0.5 hrs by Western blot analysis; assay type: subcellular; conditions: Macrophage, time 60.0 min
[18] = target: NACHT, LRR and PYD domains-containing protein 3 (Mus musculus) (UniProt Q8R4B8); test: Inhibition of NLRP3 inflammasome activation in LPS-stimulated mouse bone marrow-derived macrophages assessed as reduction in caspase1 secretion at 1 to 4 uM preincubated for 30 mins followed by nigericin addition and measured after 0.5 hrs by Western blot analysis; assay type: tissue-based; conditions: Macrophage, dose 1-4 µM
[19] = target: T2, Interferon-inducible protein AIM2 (Mus musculus) (UniProt Q91VJ1); test: Inhibition of AIM2 inflammasome activation in LPS-stimulated mouse bone marrow-derived macrophages assessed as reduction in IL-1beta secretion at 2 uM preincubated for 30 mins followed by poly-(dA:dT) addition and measured after 4 hrs by ELISA; assay type: tissue-based; conditions: Macrophage, time 4.5 hrs
T2 sequence (whole entry): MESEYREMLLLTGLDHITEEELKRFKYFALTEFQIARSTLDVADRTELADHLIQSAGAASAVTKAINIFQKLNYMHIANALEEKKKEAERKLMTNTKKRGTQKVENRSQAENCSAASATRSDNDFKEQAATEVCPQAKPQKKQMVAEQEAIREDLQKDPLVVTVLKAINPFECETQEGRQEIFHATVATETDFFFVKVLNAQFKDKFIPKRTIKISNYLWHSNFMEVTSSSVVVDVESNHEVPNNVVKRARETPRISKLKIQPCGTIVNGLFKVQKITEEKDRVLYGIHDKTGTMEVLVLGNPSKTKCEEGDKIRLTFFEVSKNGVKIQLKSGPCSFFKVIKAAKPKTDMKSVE

BMDM [20] = test: Effect on NEK7 expression in LPS-stimulated mouse bone marrow-derived macrophages at 0.5 to 2 uM preincubated for 30 mins followed by nigericin addition and measured after 30 mins by Western blot analysis; assay type: functional, tissue-based; conditions: dose 0.5-2 µM, time 60.0 min
[21] = target: NACHT, LRR and PYD domains-containing protein 3 (Mus musculus) (UniProt Q8R4B8); test: Inhibition of NLRP3 inflammasome activation in LPS-stimulated mouse bone marrow-derived macrophages assessed as reduction in cleaved IL-1beta secretion preincubated for 30 mins followed by nigericin addition and measured after 30 mins by Western blot analysis; assay type: tissue-based; conditions: Macrophage, time 60.0 min
[22] = Half life in mouse at 2 mg/kg, iv measured after 0.08 to 24 hrs by LC-MS/MS analysis; assay type: ADME, organism-based; conditions: in vivo, time 0.08-24 hrs
[23] = target: NACHT, LRR and PYD domains-containing protein 3 (Mus musculus) (UniProt Q8R4B8); test: Inhibition of NLRP3 inflammasome activation in LPS-stimulated mouse bone marrow-derived macrophages assessed as attenuation of ASC monomer at 1 to 4 uM preincubated for 30 mins followed by nigericin addition and measured after 0.5 hrs by Western blot analysis; assay type: tissue-based; conditions: Macrophage, dose 1-4 µM, time 60.0 min
[24] = Toxicity in C57BL/6 mouse assessed as loose fur at 20 to 40 mg/kg, ig administered for 28 days; assay type: organism-based; conditions: in vivo, po, 672 h, dose 20-40 mg/kg, time 28 day
[25] = Toxicity in C57BL/6 mouse assessed as induction of convulsion at 20 to 40 mg/kg, ig administered for 28 days; assay type: organism-based; conditions: in vivo, po, 672 h, dose 20-40 mg/kg, time 28 day
Mus musculus [26] = test: Downregulation of IL6 expression in colon of C57BL/6 mouse model of DSS-induced ulcerative colitis at 10 to 20 mg/kg, ig administered for 7 days by ELISA; assay type: functional, organism-based; conditions: dose 10-20 mg/kg, time 7.0 day

half-life [1]: 4.93 h
Kd [4]: 263 nM
AUC(0-inf) [6]: 583 ng·h/mL
microsomal CLint [7]: 20.3 µL/min/mg
inhibition [8]: Active
inhibition [10]: Active
inhibition [12]: Active
inhibition [15]: Dose-Dependent Effect
IC50 [16]: 560 nM
inhibition [17]: Active
inhibition [18]: Active
inhibition [19]: inactive
inhibition [21]: Dose-Dependent Effect
half-life [22]: 0.96 h
inhibition [23]: Active
Compound: COc1cc(/C=C/c2ccc(NC(=O)C3CC3)cc2)c(/C=C/[N+](=O)[O-])c(OC)c1
Activity [2]: Non-Toxic
Activity (Mus musculus [3]): Active
inhibition (Mus musculus [5]): Active
inhibition (Macrophage): inactive
Activity (Mus musculus [9]): Active
Activity [11]: Non-Toxic
Activity [13]: Non-Toxic
Activity (BMDM [14]): inactive
IC50 (L02): > 100000 nM
Activity (BMDM [20]): inactive
Activity [24]: Non-Toxic
Activity [25]: Non-Toxic
Activity (Mus musculus [26]): Active
